Measurements published in patent US4325960A, “6-Amidinopenicillanic acid derivatives including the radical of a β-lactamase inhibitor” (Leo Pharmaceutical Products Ltd. A/S (Lovens Kemiske Fabrik, priority 1979, dated 1982).
Where “and” joins values, the source holds several entries; their conditions need not be identical. Equal entries are not always repeated. Structures can show the parent of a compound that is named as a salt. Each block holds one molecule with its values, some of them ahead of it.

How the values were obtained:
β-lactamases = settings: cited from earlier work
[1] = Urinary excretion in 0 to 6 hours of penicillanic acid 1,1-dioxide in fasting volunteers following oral administration; assay type: in vivo, human
Procedure: Urinary excretion in 0 to 6 hours of penicillanic
acid 1,1-dioxide in fasting volunteers following
A. 60 mg of potassium penicillanate 1,1-dioxide
(corresponding to 52 mg of penicillanic acid
1,1-dioxide) in aqueous solution
B. 128 mg of VD-1825 hydrochloride (corresponding
to 49.0 mg of penicillanic acid 1,1-dioxide) in […]

[2] = in vivo; cited from earlier work
[3] = human, in vivo, po
Procedure: Serum concentrations and urinary excretion of mecillinam in fasting
following oral administration of
B. 128 mg of VD-1825^x hydrochloride (corresponding to 100 mg of
pivmecillinam hydrochloride) in aqueous solution

Structure (SMILES): CC1(C)[C@H](C(=O)O)N2C(=O)[C@@H](NC(=O)c3nc4ccccc4nc3C(=O)O)[C@H]2S1(=O)=O [quinacillin sulphone]
β-lactamase inhibition (β-lactamases): powerful inhibitors of a wide range of β-lactamases

Structure (SMILES): CC1(C)[C@H](C(=O)O)N2C(=O)C[C@H]2S1(=O)=O [penicillanic acid 1,1-dioxide]
Absorption from the gastro-intestinal tract, cf. Table II ([1]; oral): absorbed poorly or irregularly from the gastro-intestinal tract | β-lactamase inhibition (β-lactamases): powerful inhibitors of a wide range of β-lactamases

Structure (SMILES): CC1(C)S[C@@H]2[C@H](N=CN3CCCCCC3)C(=O)N2[C@H]1C(=O)O [mecillinam, 6-[(hexahydro-1H-azepin-1-yl)-methyleneamino]penicillanic acid]
Absorption from the gastro-intestinal tract on oral administration [2]: incompletely absorbed, when given orally

Structure (SMILES): CC1(C)[C@H](C(=O)O)N2C(=O)[C@H](Cl)[C@H]2S1(=O)=O [6α-chloropenicillanic acid 1,1-dioxide]
β-lactamase inhibition (β-lactamases): powerful inhibitors of a wide range of β-lactamases

Structure (SMILES): CC(C)(C)C(=O)OCOC(=O)[C@@H]1N2C(=O)C[C@H]2S(=O)(=O)C1(C)C
Absorption from the gastro-intestinal tract on oral administration [2]: absorbed much more slowly

Structure (SMILES): CC1(C)[C@H](C(=O)[O-])N2C(=O)C[C@H]2S1(=O)=O.[K+] [potassium penicillanate 1,1-dioxide]
Urinary excretion of penicillanic acid 1,1-dioxide ([1]; 0 to 6 hours, individual subject, 60 mg potassium penicillanate 1,1-dioxide oral, aqueous solution, fasting, 360 min): 2.4 % of dose and 3.2 % of dose and 7.7 % of dose and 5.2 % of dose and 2.9 % of dose | Urinary excretion of penicillanic acid 1,1-dioxide, mean ([1]; 0 to 6 hours, mean, 60 mg potassium penicillanate 1,1-dioxide oral, aqueous solution, fasting): 4.3 % of dose | dose excreted at 6 h ([1]; human, in vivo, po, 60 mg, 0 to 6 hours, mean, 60 mg potassium penicillanate 1,1-dioxide oral, aqueous solution, fasting): 4.3%

Structure (SMILES): COc1cccc(OC)c1C(=O)N[C@@H]1C(=O)N2[C@@H](C(=O)O)C(C)(C)S(=O)(=O)[C@H]12 [methicillin sulphone, 1,1-dioxo-6β-(2,6-dimethoxybenzamido)penicillanic acid]
β-lactamase inhibition (β-lactamases): powerful inhibitors of a wide range of β-lactamases

Structure (SMILES): O=C(O)[C@H]1/C(=C/CO)O[C@@H]2CC(=O)N21 [clavulanic acid]
β-lactamase inhibition (β-lactamases): β-lactamase inhibitors

Absorption concluded from urinary recovery of penicillanic acid 1,1-dioxide ([1]; human, in vivo, po): efficient absorption
Structure (SMILES): CC1(C)S[C@@H]2[C@H](N=CN3CCCCCC3)C(=O)N2[C@H]1C(=O)OCOC(=O)[C@@H]1N2C(=O)C[C@H]2S(=O)(=O)C1(C)C [VD-1825, 1,1-Dioxopenicillanoyloxymethyl 6-[(hexahydro-1H-azepin-1-yl)-methyleneamino]penicillanate hydrochloride]
Urinary recovery of mecillinam compared with pivmecillinam [3]: comparable to that following administration of pivmecillinam
